The test system of one data set is FaDu HNC cell line. The data set is described as follows: Erlotinib sensitivity assay (CellTitre 96 cell viability). Particulars: Homo sapiens, 72 h, read-out: Erlotinib sensitivity (EC50).
In a further data set the test system is SCC-9 HNC cell line. The data set is described as above. As to conditions: Homo sapiens, SCC-9, 72 h, read-out: Erlotinib sensitivity (EC50).
For data set [1] the following is noted: cited from earlier work.
The test system of a further data set is HN5 HNC cell line. The data set is described as follows: Erlotinib sensitivity assay (CellTitre 96 cell viability). As to conditions: Homo sapiens, HN5, 72 h, read-out: Erlotinib sensitivity (EC50).

As a reminder, the EC50 is the concentration at which the effect is half-maximal.

Each structure is given as a SMILES string.

In the case of `C#Cc1cccc(Nc2ncnc3cc(OCCOC)c(OCCOC)cc23)c1` [erlotinib, N-(3-ethynylphenyl)-6,7-bis(2-methoxyethoxy)quinazolin-4-amine], the EC50 in the data set on FaDu HNC cell line was determined as 8.26 µM; in the data set on SCC-9 HNC cell line, 2.15 µM; with HN5 HNC cell line it was 0.64 µM. The “Concentration in serum of patients treated with erlotinib” value in data set [1] was 3000 to 10000 nM.

The values are drawn from patent publication US9051551B2, “Methods and compositions for increasing sensitivity to tyrosine kinase inhibitors” (The University of Western Australia, priority 2009, dated 2015).
